Test results taken from article PMC12040169 (PLOS Biology, 2025).

Assay: in vitro
Settings: human, hela cells, % viability

C=CCn1c2cc(C)sc2c2cnn(CC(=O)OCC)c(=O)c21 [CBK284165]
viability at 28.5 h, 10 µM: 82.9%

CCn1c2cc(C)sc2c2cnn(CC(=O)N3CCCC3)c(=O)c21 [CBK284168]
viability at 28.5 h, 10 µM: 99.8%

CCn1c2cc(C)sc2c2cnn(CC(=O)NC3CC3)c(=O)c21 [CBK284170]
viability at 28.5 h, 10 µM: 89.3%

CCCNC(=O)Cn1ncc2c3sc(C)cc3n(CC)c2c1=O [CBK284171]
viability at 28.5 h, 10 µM: 85.8%

O=C(c1nccs1)C1CCN(C(=O)C2CCCCC2)CC1 [CBK284175]
viability at 28.5 h, 10 µM: 107%

O=C(c1nccs1)C1CCN(C(=O)Cc2ccsc2)CC1 [CBK284176]
viability at 28.5 h, 10 µM: 95.5%

COC(=O)CN1N=C(C(C)(C)C)Cn2c(cc3sccc32)C1=O [CBK284177]
viability at 28.5 h, 10 µM: 83.3%

Cn1ccnc1C1(O)CC2CCC(C1)N2C(=O)Nc1ccccc1F (stereo not drawn) [CBK284178]
viability at 28.5 h, 10 µM: 88.2%

Cn1ccnc1C1(O)CC2CCC(C1)N2C(=O)c1ccco1 (stereo not drawn) [CBK284179]
viability at 28.5 h, 10 µM: 81.7%

Cc1cc2c(s1)c1cnn(CCN3CCCC3)c(=O)c1n2C [CBK284180]
viability at 28.5 h, 10 µM: 90%

CC(C)C(=O)N1CCC(n2nc(-c3cccs3)ccc2=O)CC1 [CBK284181]
viability at 28.5 h, 10 µM: 86.6%

CCn1c2cc(C)sc2c2cnn(CC(=O)OC)c(=O)c21 [CBK284186]
viability at 28.5 h, 10 µM: 86.3%

Cc1cc2c(s1)c1cnn(CC(=O)NC3CCCC3)c(=O)c1n2C [CBK284189]
viability at 28.5 h, 10 µM: 84.2%

CCCc1nn(CC(=O)N(C)C)c(=O)c2cc3ccsc3n12 [CBK284193]
viability at 28.5 h, 10 µM: 84.4%

O=C(C1CC=CCC1)N1CCCC(c2[nH]ncc2-c2ccncc2)C1 (stereo not drawn) [CBK284198]
viability at 28.5 h, 10 µM: 93.2%

O=C(c1nccs1)C1CCN(C(=O)Cc2ccc(F)cc2)CC1 [CBK284199]
viability at 28.5 h, 10 µM: 104%

O=C(c1nccs1)C1CCN(C(=O)c2cc(F)cc(F)c2)CC1 [CBK284200]
viability at 28.5 h, 10 µM: 96.9%

O=C(Cn1ncn2c(cc3ccsc32)c1=O)N1CCCCCC1 [CBK284202]
viability at 28.5 h, 10 µM: 81.7%

COc1ccc(C2=NNC(=O)c3cc4sccc4n3C2)cc1 [CBK284205]
viability at 28.5 h, 10 µM: 93.1%

O=C(c1nccs1)C1CCN(C(=O)C2(c3ccccc3)CC2)CC1 [CBK284206]
viability at 28.5 h, 10 µM: 97.4%

O=C(c1nccs1)C1CCN(C(=O)Cc2cccc(F)c2)CC1 [CBK284208]
viability at 28.5 h, 10 µM: 94.6%

CN(C)C(=O)CN1N=C(C(C)(C)C)Cn2c(cc3ccccc32)C1=O [CBK284210]
viability at 28.5 h, 10 µM: 81.8%

O=C(C1CC1)N1CCC(n2nc(-c3cccs3)ccc2=O)CC1 [CBK284213]
viability at 28.5 h, 10 µM: 94.7%

OC1(c2ccc(F)cc2)COC2(CCNCC2)C1 (stereo not drawn) [CBK284214]
viability at 28.5 h, 10 µM: 93.6%

CCn1c2cc(C)oc2c2cnn(CC(=O)N3CCCC3)c(=O)c21 [CBK284215]
viability at 28.5 h, 10 µM: 101%

O=c1ccc(-c2ccc(F)cc2)nn1CC1CCNCC1 [CBK284216]
viability at 28.5 h, 10 µM: 86.5%

Cc1cc2c(o1)c1cnn(CC(=O)N3CCCCC3)c(=O)c1n2C [CBK284217]
viability at 28.5 h, 10 µM: 90.5%

Cc1cc2c(o1)c1cnn(CC(=O)N3CCCC(C)C3)c(=O)c1n2C (stereo not drawn) [CBK284218]
viability at 28.5 h, 10 µM: 85%

Cc1cc2c(o1)c1cnn(CC(=O)N3CCCCCC3)c(=O)c1n2C [CBK284219]
viability at 28.5 h, 10 µM: 81.2%

CC1CNCCC1n1nc(-c2cccs2)ccc1=O (stereo not drawn) [CBK284221]
viability at 28.5 h, 10 µM: 82.9%

Cc1cc2c(o1)c1cnn(CC(=O)N3CCCC3)c(=O)c1n2C [CBK284223]
viability at 28.5 h, 10 µM: 100%

CCn1c2cc(C)oc2c2cnn(CC(=O)N(C)C)c(=O)c21 [CBK284224]
viability at 28.5 h, 10 µM: 83.4%

Cc1sc2nc(C3CC3)n(C3CCNCC3)c(=O)c2c1C [CBK284228]
viability at 28.5 h, 10 µM: 92.3%

CCCc1nn(Cc2ccccn2)c(=O)c2cc3ccsc3n12 [CBK284229]
viability at 28.5 h, 10 µM: 61.1%

CCn1c2cc(C)oc2c2cn[nH]c(=O)c21 [CBK284230]
viability at 28.5 h, 10 µM: 76.1%

Cc1cc2c(s1)c1cnn(CC(=O)N(C)C)c(=O)c1n2C [CBK284231]
viability at 28.5 h, 10 µM: 99.5%

Cc1cc2c(o1)c1cnn(CC(=O)N(C)C)c(=O)c1n2C(C)C [CBK284233]
viability at 28.5 h, 10 µM: 88.9%

O=C(C1CC1)N1CCC(c2[nH]ncc2-c2ccncc2)CC1 [CBK284238]
viability at 28.5 h, 10 µM: 87.6%

O=C(C1CCC1)N1CCC(n2nc(C3CC3)ccc2=O)CC1 [CBK284239]
viability at 28.5 h, 10 µM: 104%

O=C(CC1CCCCC1)N1CCC(n2nc(C3CC3)ccc2=O)CC1 [CBK284241]
viability at 28.5 h, 10 µM: 88.6%

O=C(Cc1cccs1)N1CCC(n2nc(C3CC3)ccc2=O)CC1 [CBK284243]
viability at 28.5 h, 10 µM: 78.6%

CC1CCCN(C(=O)Cn2ncn3c(cc4ccsc43)c2=O)C1 (stereo not drawn) [CBK284245]
viability at 28.5 h, 10 µM: 84.5%

Cc1cc2c(s1)c1cnn(CC(=O)NC3CC3)c(=O)c1n2C [CBK284246]
viability at 28.5 h, 10 µM: 90.5%

Cc1cc2c(s1)c1cnn(CC(=O)OC(C)C)c(=O)c1n2C [CBK284247]
viability at 28.5 h, 10 µM: 102%

Cc1noc(C)c1C(=O)N1CCN(Cc2ccco2)C[C@@H]1C(C)C [CBK284248]
viability at 28.5 h, 10 µM: 93.9%

CCC(=O)N1CCC[C@H]1Cn1nc(-c2ccc(F)cc2)ccc1=O [CBK284253]
viability at 28.5 h, 10 µM: 81.1%

Cc1cc(C(=O)N2CCN(Cc3ccco3)C[C@@H]2C(C)C)c(C)[nH]1 [CBK284254]
viability at 28.5 h, 10 µM: 88.2%

O=C(NC[C@H]1CCCN(C(=O)c2cccs2)C1)c1ccco1 [CBK284261]
viability at 28.5 h, 10 µM: 94.6%

COc1cccc(CN2CCN(C(=O)c3ccco3)[C@@H](C)C2)c1 [CBK284267]
viability at 28.5 h, 10 µM: 110%

COc1ccc(NC(=O)[C@@H]2C=CCN2C(=O)C2CC2)cc1 [CBK284277]
viability at 28.5 h, 10 µM: 98.2%

COc1cccc(C(=O)N2CC=C[C@H]2C(=O)NC2CC2)c1 [CBK284278]
viability at 28.5 h, 10 µM: 94.4%

O=C(c1cccs1)N1CCC[C@H]1[C@H](O)c1nccs1 [CBK284285]
viability at 28.5 h, 10 µM: 92.1%

O=C(c1ccco1)N1CCC[C@H]1[C@H](O)c1nccs1 [CBK284286]
viability at 28.5 h, 10 µM: 98.5%

CCCC(=O)N1CCC[C@H]1Cn1nc(-c2ccc(F)cc2)ccc1=O [CBK284288]
viability at 28.5 h, 10 µM: 99.5%

O=C(c1ccco1)N1CCC[C@H]1[C@H](O)c1nc2ccccc2s1 [CBK284290]
viability at 28.5 h, 10 µM: 99%

O=C(NC1CC1)[C@@H]1C=CCN1S(=O)(=O)c1ccc(F)cc1 [CBK284294]
viability at 28.5 h, 10 µM: 92.5%

CC[C@H](Cn1nc(-c2cccs2)ccc1=O)NC(=O)C1CCC1 [CBK284295]
viability at 28.5 h, 10 µM: 103%

CCC(=O)N[C@H](CC)Cn1ncc2ccccc2c1=O [CBK284303]
viability at 28.5 h, 10 µM: 77.1%

CC[C@H](Cn1ncc2ccccc2c1=O)NC(=O)C(C)(C)C [CBK284304]
viability at 28.5 h, 10 µM: 90.2%

CCn1cc(C(=O)N2CCN(Cc3ccco3)C[C@@H]2C(C)C)cn1 [CBK284307]
viability at 28.5 h, 10 µM: 97.7%

CC(C)(C)OC(=O)N1CCC[C@@H](C(=O)c2cccs2)C1 [CBK284310]
viability at 28.5 h, 10 µM: 82.1%

COc1ccc(CNC(=O)[C@H]2C=CCN2C(=O)c2ccco2)cc1 [CBK284321]
viability at 28.5 h, 10 µM: 71.9%

CC(C)[C@@H](N)Cn1nnc2ccccc21 [CBK284323]
viability at 28.5 h, 10 µM: 82.7%

COc1ccc(C(=O)[C@H]2CCCN(C(=O)c3ccco3)C2)cc1 [CBK284327]
viability at 28.5 h, 10 µM: 99.7%

O=C(c1ccc(F)cc1)[C@H]1CCCN(C(=O)c2ccco2)C1 [CBK284328]
viability at 28.5 h, 10 µM: 80.7%

O=C(c1ccccc1F)[C@H]1CCCN(C(=O)c2cc(C3CC3)n[nH]2)C1 [CBK284330]
viability at 28.5 h, 10 µM: 80%
